Reference: PubChem BioAssay (NCI)
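These data come from cells grown in 96-well plates and exposed to compound for 48 hours at five concentrations. Abbreviation: GI50, concentration required for 50% inhibition of growth. TGI: concentration producing complete growth inhibition.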

Columns and labels:
Test in all cases: NCI-60 cell line screen, 48 h
[1] = test system: SF-539 CNS
[2] = test system: MOLT-4 leukemia
[3] = test system: OVCAR-3 ovarian
[4] = test system: A549 NSCLC
[5] = test system: SNB-19 CNS
[6] = test system: NCI-H522 lung
[7] = test system: TK-10 renal
[8] = test system: HT29 colon
[9] = test system: 786-0 renal
[10] = test system: HOP-62 NSCLC
[11] = test system: K-562 leukemia
[12] = test system: SK-MEL-5 melanoma
[13] = test system: SF-268 CNS
[14] = test system: SK-MEL-2 melanoma
[15] = test system: RPMI-8226 leukemia
[16] = test system: IGROV1 ovarian
[17] = test system: SW-620 colon
[18] = test system: NCI-H460 lung
[19] = test system: COLO 205 colon
[20] = test system: EKVX NSCLC
[21] = test system: A498 renal
[22] = test system: ACHN renal
[23] = test system: CCRF-CEM leukemia
[24] = test system: OVCAR-8 ovarian
[25] = test system: LOX IMVI melanoma
[26] = test system: RXF 393 renal
[27] = test system: CAKI-1 renal
[28] = test system: HS 578T breast
[29] = test system: BT-549 breast
[30] = test system: MDA-MB-435
[31] = test system: UACC-257 melanoma
[32] = test system: MCF7 breast
[33] = test system: KM12 colon
[34] = test system: UO-31 renal
[35] = test system: PC-3 prostate
[36] = test system: SF-295 CNS
[37] = test system: HCT-15 colon
[38] = test system: MDA-MB-231 breast
[39] = test system: SR leukemia
[40] = test system: NCI-H226 lung
[41] = test system: UACC-62 melanoma
[42] = test system: SN12C renal
[43] = test system: M14 melanoma
[44] = test system: U251 CNS

In the case of `Oc1ccc(-c2cn3cc(Cl)sc3n2)cc1`, the GI50 [1] was > 100 µM, the TGI [1] was > 100 µM and the GI50 [2] was 16.5 µM. For the same compound, the TGI [2] was 34.3 µM, the GI50 [3] was 22.5 µM and the TGI [3] was 64.1 µM. For the same compound, the GI50 [4] was 30.8 µM, the TGI [4] was > 100 µM and the GI50 [5] was 58.8 µM. The TGI [5] was > 100 µM, the GI50 [6] was 32.6 µM and the TGI [6] was > 100 µM. It also gave a GI50 [7] of 40.4 µM, a TGI [7] of 84.9 µM and a GI50 [8] of 24.2 µM. For the same compound, the TGI [8] was 78.8 µM, the GI50 [9] was 18.2 µM and the TGI [9] was 67.1 µM. For the same compound, the GI50 [10] was > 100 µM, the TGI [10] was > 100 µM and the GI50 [11] was 36.7 µM. The TGI [11] was > 100 µM, the GI50 [12] was 29.8 µM and the TGI [12] was 78.1 µM. For the same compound, the GI50 [13] was 12.2 µM, the TGI [13] was 80.2 µM and the GI50 [14] was > 100 µM. The TGI [14] was > 100 µM, the GI50 [15] was 16.5 µM and the TGI [15] was 40.7 µM. The GI50 [16] was 67.7 µM, the TGI [16] was > 100 µM and the GI50 [17] was 56.9 µM. The TGI [17] was > 100 µM, the GI50 [18] was 12.9 µM and the TGI [18] was 53.5 µM. For the same compound, the GI50 [19] was 19.8 µM, the TGI [19] was 43.4 µM and the GI50 [20] was 47.6 µM. For the same compound, the TGI [20] was > 100 µM, the GI50 [21] was 57.5 µM and the TGI [21] was > 100 µM. For the same compound, the GI50 [22] was 3.98 µM, the TGI [22] was 24.6 µM and the GI50 [23] was 12.1 µM. For the same compound, the TGI [23] was 39.8 µM, the GI50 [24] was 56.3 µM and the TGI [24] was > 100 µM. The GI50 [25] was 32.3 µM, the TGI [25] was 86.2 µM and the GI50 [26] was > 100 µM. For the same compound, the TGI [26] was > 100 µM, the GI50 [27] was 41.5 µM and the TGI [27] was > 100 µM. The GI50 [28] was > 100 µM, the TGI [28] was > 100 µM and the GI50 [29] was 32.1 µM. The TGI [29] was > 100 µM, the GI50 [30] was 32.3 µM and the TGI [30] was > 100 µM. The GI50 [31] was 46.2 µM, the TGI [31] was > 100 µM and the GI50 [32] was 6.77 µM. The TGI [32] was 26.9 µM, the GI50 [33] was 20.9 µM and the TGI [33] was 74.1 µM. The GI50 [34] was > 100 µM, the TGI [34] was > 100 µM and the GI50 [35] was 15.9 µM. For the same compound, the TGI [35] was 46.8 µM, the GI50 [36] was 47.3 µM and the TGI [36] was > 100 µM. For the same compound, the GI50 [37] was > 100 µM, the TGI [37] was > 100 µM and the GI50 [38] was > 100 µM. For the same compound, the TGI [38] was > 100 µM, the GI50 [39] was 4.51 µM and the TGI [39] was 18.8 µM. For the same compound, the GI50 [40] was 5.49 µM, the TGI [40] was 48.5 µM and the GI50 [41] was 5.36 µM. The TGI [41] was 41.6 µM, the GI50 [42] was 0.248 µM and the TGI [42] was 94.8 µM. For the same compound, the GI50 [43] was 20.1 µM, the TGI [43] was 56.8 µM and the GI50 [44] was > 100 µM. For the same compound, the TGI [44] was > 100 µM.
